Results taken from patent US9102638B2, “Amidobenzothiazoles and process for the preparation thereof” (COUNCIL OF SCIENTIFIC & INDUSTRIAL RESEARCH, priority 2011, dated 2015).

Assays:
Assay type in all cases: cell-based
SF-295 = assay: In vitro cytotoxicity, NCI screen: SF-295 (CNS); details: Homo sapiens; SF-295, CNS panel, NCI protocol; read-out: GI50 values (μM conc.)
Experimental: (§1) The in vitro anticancer activity studies for these amidobenzothiazoles were carried out at the National Cancer Institute, Maryland, USA.
(§2) The amidobenzothiazoles have been tested against sixty human tumor cell lines derived from nine cancer types (leukemia cancer cell line, non-small cell lung cancer cell line, colon cancer cell line, CNS cancer cell line, melanoma cancer cell line, ovarian cancer cell line, renal cancer cell line, prostate cancer cell line and breast cancer cell lines). For these compounds results are expressed in GI50 values of that particular cancer cell at micro molar (μM) concentration as per NCI protocol.

HCC-2998 = assay: In vitro cytotoxicity, NCI screen: HCC-2998 (Colon); details: Homo sapiens; HCC-2998, Colon panel, NCI protocol; read-out: GI50 values (μM conc.)
Experimental: as §1, §2

SK-MEL-2 = assay: In vitro cytotoxicity, NCI screen: SK-MEL-2 (Melanoma); details: Homo sapiens; SK-MEL-2, Melanoma panel, NCI protocol; read-out: GI50 values (μM conc.)
Experimental: as §1, §2

CAKI-1 = assay: In vitro cytotoxicity, NCI screen: CAKI-1 (Renal); details: Homo sapiens; CAKI-1, Renal panel, NCI protocol; read-out: GI50 values (μM conc.)
Experimental: as §1, §2

OVCAR-8 = assay: In vitro cytotoxicity, NCI screen: OVCAR-8 (Ovarian); details: Homo sapiens; OVCAR-8, Ovarian panel, NCI protocol; read-out: GI50 values (μM conc.)
Experimental: as §1, §2

U251 = assay: In vitro cytotoxicity, NCI screen: U251 (CNS); details: Homo sapiens, U-251; U251, CNS panel, NCI protocol; read-out: GI50 values (μM conc.)
Experimental: as §1, §2

OVCAR-4 = assay: In vitro cytotoxicity, NCI screen: OVCAR-4 (Ovarian); details: Homo sapiens; OVCAR-4, Ovarian panel, NCI protocol; read-out: GI50 values (μM conc.)
Experimental: as §1, §2

NCI-H23 = assay: In vitro cytotoxicity, NCI screen: NCI-H23 (Non-small cell lung); details: Homo sapiens; NCI-H23, Non-small cell lung panel, NCI protocol; read-out: GI50 values (μM conc.)
Experimental: as §1, §2

786-0 = assay: In vitro cytotoxicity, NCI screen: 786-0 (Renal); details: Homo sapiens; 786-0, Renal panel, NCI protocol; read-out: GI50 values (μM conc.)
Experimental: as §1, §2

COLO-205 = assay: In vitro cytotoxicity, NCI screen: COLO-205 (Colon); details: Homo sapiens; COLO-205, Colon panel, NCI protocol; read-out: GI50 values (μM conc.)
Experimental: as §1, §2

A549/ATCC = assay: In vitro cytotoxicity, NCI screen: A549/ATCC (Non-small cell lung); details: Homo sapiens, Non-small cell lung panel, NCI protocol, read-out: GI50 values (μM conc.)
Experimental: as §1, §2

OVCAR-5 = assay: In vitro cytotoxicity, NCI screen: OVCAR-5 (Ovarian); details: Homo sapiens; OVCAR-5, Ovarian panel, NCI protocol; read-out: GI50 values (μM conc.)
Experimental: as §1, §2

HT29 = assay: In vitro cytotoxicity, NCI screen: HT29 (Colon); details: Homo sapiens, HT-29; HT29, Colon panel, NCI protocol; read-out: GI50 values (μM conc.)
Experimental: as §1, §2

DU-145 = assay: In vitro cytotoxicity, NCI screen: DU-145 (Prostate); details: Homo sapiens, read-out: GI50 values (μM conc.)
Experimental: as §1, §2

MDA-MB-468 = assay: In vitro cytotoxicity, NCI screen: MDA-MB-468 (Breast); details: Homo sapiens, read-out: GI50 values (μM conc.)
Experimental: as §1, §2

SF-268 = assay: In vitro cytotoxicity, NCI screen: SF-268 (CNS); details: Homo sapiens, read-out: GI50 values (μM conc.)
Experimental: as §1, §2

M14 = assay: In vitro cytotoxicity, NCI screen: M14 (Melanoma); details: Homo sapiens; M14, Melanoma panel, NCI protocol; read-out: GI50 values (μM conc.)
Experimental: as §1, §2

RPMI-8226 = assay: In vitro cytotoxicity, NCI screen: RPMI-8226 (Leukemia); details: Homo sapiens; RPMI-8226, Leukemia panel, NCI protocol; read-out: GI50 values (μM conc.)
Experimental: as §1, §2

TK-10 = assay: In vitro cytotoxicity, NCI screen: TK-10 (Renal); details: Homo sapiens; TK-10, Renal panel, NCI protocol; read-out: GI50 values (μM conc.)
Experimental: as §1, §2

SK-OV-3 = assay: In vitro cytotoxicity, NCI screen: SK-OV-3 (Ovarian); details: Homo sapiens; SK-OV-3, Ovarian panel, NCI protocol; read-out: GI50 values (μM conc.)
Experimental: as §1, §2

SF-539 = assay: In vitro cytotoxicity, NCI screen: SF-539 (CNS); details: Homo sapiens, read-out: GI50 values (μM conc.)
Experimental: as §1, §2

RXF 393 = assay: In vitro cytotoxicity, NCI screen: RXF 393 (Renal); details: Homo sapiens; RXF 393, Renal panel, NCI protocol; read-out: GI50 values (μM conc.)
Experimental: as §1, §2

SR = assay: In vitro cytotoxicity, NCI screen: SR (Leukemia); details: Homo sapiens, Leukemia panel, NCI protocol, read-out: GI50 values (μM conc.)
Experimental: as §1, §2

NCI-H322M = assay: In vitro cytotoxicity, NCI screen: NCI-H322M (Non-small cell lung); details: Homo sapiens, Non-small cell lung panel, NCI protocol, read-out: GI50 values (μM conc.)
Experimental: as §1, §2

MDA-MB-231/ATCC = assay: In vitro cytotoxicity, NCI screen: MDA-MB-231/ATCC (Breast); details: Homo sapiens, Breast panel, NCI protocol, read-out: GI50 values (μM conc.)
Experimental: as §1, §2

CNS cancer cell lines = assay: In vitro activity against CNS cancer cell lines (panel range); details: Homo sapiens, read-out: GI50 values, range over the listed compounds and the panel
Experimental: as §1, §2

MALME-3M = assay: In vitro cytotoxicity, NCI screen: MALME-3M (Melanoma); details: Homo sapiens, Melanoma panel, NCI protocol, read-out: GI50 values (μM conc.)
Experimental: as §1, §2

HS 578T = assay: In vitro cytotoxicity, NCI screen: HS 578T (Breast); details: Homo sapiens, read-out: GI50 values (μM conc.)
Experimental: as §1, §2

NCI-H226 = assay: In vitro cytotoxicity, NCI screen: NCI-H226 (Non-small cell lung); details: Homo sapiens; NCI-H226, Non-small cell lung panel, NCI protocol; read-out: GI50 values (μM conc.)
Experimental: as §1, §2

NCI-H460 = assay: In vitro cytotoxicity, NCI screen: NCI-H460 (Non-small cell lung); details: Homo sapiens; NCI-H460, Non-small cell lung panel, NCI protocol; read-out: GI50 values (μM conc.)
Experimental: as §1, §2

NCI-H522 = assay: In vitro cytotoxicity, NCI screen: NCI-H522 (Non-small cell lung); details: Homo sapiens; NCI-H522, Non-small cell lung panel, NCI protocol; read-out: GI50 values (μM conc.)
Experimental: as §1, §2

IGROV1 = assay: In vitro cytotoxicity, NCI screen: IGROV1 (Ovarian); details: Homo sapiens, IGROV-1; IGROV1, Ovarian panel, NCI protocol; read-out: GI50 values (μM conc.)
Experimental: as §1, §2

SMILES | GI50 (SF-295) [µM] | GI50 (HCC-2998) [µM] | GI50 (SK-MEL-2) [µM] | GI50 (CAKI-1) [µM] | GI50 (OVCAR-8) [µM] | GI50 (U251) [µM] | GI50 (OVCAR-4) [µM] | GI50 (NCI-H23) [µM] | GI50 (786-0) [µM] | GI50 (COLO-205) [µM] | GI50 (A549/ATCC) [µM] | GI50 (HT29) [µM] | GI50 (DU-145) [µM] | GI50 (MDA-MB-468) [µM] | GI50 (SF-268) [µM] | GI50 (M14) [µM] | GI50 (RPMI-8226) [µM] | GI50 (SK-OV-3) [µM] | GI50 (SF-539) [µM] | GI50 (RXF 393) [µM] | other results
COc1ccc(/C=C/C(=O)c2cc(OC)c(OC)c(OC)c2)cc1OCC(=O)Nc1nc2ccc(OC(F)(F)F)cc2s1 [Compound 9j, N1-(6-(trifluoromethoxy)-1,3-benzothiazol-2-yl)-2-{2-methoxy-5-[(E)-3-oxo-3-(3,4,5-trimethoxyphenyl)-1-propenyl]phenoxy}acetamide] | 2.21 | 6.18 | 4.97 | 2.2 | 1.54 | 0.7 | 2.07 | 2.15 | 2.26 | 6.37 | 1.99 | 3.66 | 1.56 | 3.52 | 1.2 | 1.72 | 2.02 | 2.16 | 0.29 | 1.58 | GI50 (OVCAR-5): 4.76 µM; GI50 (TK-10): 2.08 µM; GI50 (SR): 0.39 µM; GI50 (NCI-H322M): 2.77 µM; GI50 (MDA-MB-231/ATCC): 2.01 µM; GI50 (CNS cancer cell lines): 0.045 to 18.8 µM; GI50 (MALME-3M): 2.69 µM; GI50 (HS 578T): 3.08 µM; GI50 (NCI-H226): 3.35 µM; GI50 (NCI-H460): 2.43 µM; GI50 (NCI-H522): 0.67 µM; GI50 (IGROV1): 2.54 µM
COc1ccc(/C=C\c2cc(OC)c(OC)c(OC)c2)cc1OCC(=O)Nc1nc2ccccc2s1 [Compound 8a, N1-(1,3-benzothiazol-2-yl)-2-{2-methoxy-5-[(Z)-2-(3,4,5-trimethoxyphenyl)-1-ethenyl]phenoxy}acetamide] | 0.22 | 0.37 | 0.18 | 0.41 | 0.25 | 0.048 | 0.37 | 0.11 | 7.3 | 2.83 | 0.34 | 3.16 | 0.1 | 0.1 | 0.18 | 0.072 | 0.15 | 0.34 | 0.045 | 0.05 | GI50 (SR): 0.037 µM; GI50 (MDA-MB-231/ATCC): 0.19 µM; GI50 (CNS cancer cell lines): 0.045 to 18.8 µM; GI50 (MALME-3M): 1.99 µM; GI50 (NCI-H226): 0.27 µM; GI50 (NCI-H460): 0.052 µM; GI50 (NCI-H522): 0.079 µM; GI50 (IGROV1): 0.21 µM
